{"source": "patent US20210401916A1", "about": "“COMPOSITION FOR PREVENTION AND TREATMENT OF MUSCULAR DISEASES OR FOR IMPROVEMENT OF MUSCLE FUNCTION CONTAINING 3,5-DICAFFEOYLQUINIC ACID OR CHRYSANTHEMUM EXTRACT” (Industry-Academic Cooperation Foundation, Yonsei University, priority 2016, published 2021)", "type_in_all_cases": "cell-based", "key": {"PGC-1α": {"system": "PGC-1α", "experiment": "PGC-1α luciferase reporter (pTA-Luc-PGC-1α plasmid) in transfected COS7 cells", "conditions": "treated at 5, 10, 20, 40 or 60 μg/mL, **p<0.01, FIG. 11", "experimental": "To confirm an effect of increasing an expression level of PGC-1α by treatment of COS7 cells with a Chrysanthemum extract, COS7 cells (ATCC) were transfected with a pTA-Luc-PGC-1α plasmid (Addgene) by the same method as described in Experimental Example 1-(1). Here, 10%, 30%, 50%, 70% and 90% ethanol extracts of Chrysanthemum, which were prepared in Example 1-(2), and the hot water extract of Chrysanthemum, which was prepared in Example 1-(5), were treated at 10 μg/mL.\nTo confirm an effect of increasing an expression level of PGC-1α by treatment of […] (ATCC) with the 95% ethanol extract of Chrysanthemum, the 95% ethanol extract of Chrysanthemum, prepared in Example 1-(2), was treated at 10 or 40 μg/mL by the same method as described in Experimental Example 1-(2).\nTo confirm an effect of increasing an expression level of PGC-1α by treatment of COS7 cells (ATCC) with 3,5-dicaffeoylquinic acid, the 3,5-dicaffeoylquinic acid obtained in Example 2 was treated at 5, 10, 20, 40 or 60 μg/mL by the same method as described in Experimental Example 1-(2), and the result is shown in FIG. 11."}, "SIRT1": {"system": "SIRT1", "experiment": "SIRT1 luciferase reporter (pTA-Luc-SIRT1 plasmid) in transfected COS7 cells", "conditions": "treated at 20, 40 or 60 μg/mL (5 to 60 μg/mL tested), **p<0.01, FIG. 10", "experimental": "To confirm an effect of increasing an expression level of SIRT1 by treatment of COS7 cells (ATCC) with a Chrysanthemum extract, COS7 cells (ATCC) were transfected with a pTA-Luc-SIRT1 plasmid (Addgene) by the same method as described in Experimental Example 1-(1). Here, the 95% ethanol extract of Chrysanthemum prepared in Example 1-(2) was treated at 20, 30 or 40 μg/mL, and the result is shown in FIG. 4.\nTo confirm an effect of increasing an expression level of SIRT1 by treatment of COS7 cells (ATCC) with 3,5-dicaffeoylquinic acid, the 3,5-dicaffeoylquinic acid obtained in Example 2 was treated at 5, 10, 20, 40 or 60 μg/mL by the same method as described in Experimental Example 1-(4), and the result is shown in FIG. 10."}, "atrogin-1": {"system": "atrogin-1", "experiment": "atrogin-1 mRNA expression (RT-PCR) in TNF-α-treated L6 myotubes", "conditions": "50 ng/mL TNF-α, 1 or 10 μg/mL, 6 hours", "experimental": "(§1) L6 myoblasts (ATCC), which are muscle cells, were added at 1×10^5 cell/mL to a 6-well plate with 10% FBS (Gibco)-containing DMEM (Hyclone). When the cell density reached approximately 80 to 85%, the medium in the well was removed, the cells were treated with 2% HS (Hyclone)-containing DMEM (Hyclone) to induce myotube differentiation. The differentiation was performed for total of 6 days by replacing the medium and a sample with fresh ones every two days. After differentiation, the 30% ethanol extract of Chrysanthemum prepared in Example 1-(2) was dissolved in DMEM (Hyclone) containing 50 ng/mL tumor necrosis factor alpha (TNF-α; PeproTech, Rocky Hills, N.J., USA) at 1 or 10 μg/mL, and used to treat the cells. After 6 hours, total RNA was isolated with a TRIzol reagent (Takara, Shiga, Japan). The isolated total RNA was quantified using a NanoDrop 1000 (Thermo Fisher Scientific Inc.). cDNA was synthesized from 16 μL of the quantified RNA using a Reverse Transcriptase Premix (ELPIS-Biotech, Daejeon, Korea) and a PCR machine (Gene Amp PCR System 2700; Applied Biosystems, Foster City, Calif., USA) under conditions of 42° C. for 55 minutes and 70° C. for 15 minutes. […]"}, "MuRF-1": {"system": "MuRF-1", "experiment": "MuRF-1 mRNA expression (RT-PCR) in TNF-α-treated L6 myotubes", "conditions": "50 ng/mL TNF-α, 1 or 10 μg/mL, 6 hours", "experimental": "as §1"}, "p-mTOR": {"system": "p-mTOR", "experiment": "p-mTOR protein expression (western blot) in TNF-α-treated L6 myotubes", "conditions": "1 or 10 μg/mL, 24 hours", "experimental": "To confirm the muscle protein expression-increasing activity of a Chrysanthemum extract in L6 myoblasts (ATCC), which are muscle cells, after differentiation by the same method as described in Experimental Example 2, a sample was treated with the 30% ethanol extract of Chrysanthemum prepared in Example 1-(2) at 1 or 10 μg/mL. The samples were treated for 24 hours, and then the cells were dissolved in an NP-40 buffer solution (ELPIS-Biotech) containing a proteinase inhibitor cocktail (Sigma, St. Louis, Mo., USA). The cells dissolved in the buffer solution were transferred to a 1.5 mL tube for centrifugation at 13,000 rpm for 10 minutes, and then only a supernatant was taken. The supernatant obtained previously was quantified by a Bradford method (Bio-Rad Laboratories Inc., Hercules, Calif., USA). The quantified protein was boiled for 5 minutes and isolated by electrophoresis with a 10% SDS-PAGE gel, and then the isolated proteins were transferred to a nitrocellulose membrane. p-mTOR, mTOR, p-4EBP1, 4EBP1, p-P70S6K and P70S6K and an α-tubulin primary antibody were diluted in 2.5% bovine serum albumin (BSA; bioWORLD, Dublin, Ohio, USA) at a ratio of 1:1000, and the proteins which were transferred to a nitrocellulose membrane were reacted at room temperature for 20 hours. […]"}, "MyoD": {"system": "MyoD", "experiment": "MyoD mRNA expression (RT-PCR) during L6 myotube differentiation", "conditions": "L6 muscle cells, 10, 20 or 40 μg/mL during differentiation, FIG. 14", "experimental": "(§2) To confirm the muscle differentiation-promoting activity of a Chrysanthemum extract in L6 myoblasts (ATCC), which are muscle cells, the cells were treated with the 30% ethanol extract of Chrysanthemum, prepared in Example 1-(2), at 5, 10 or 20 μg/mL to induced myotube differentiation by the same method as described in Experimental Example 1-(6). RT-PCR was performed with specific primers (Bioneer) by the same method as described in Experimental Example 2, and the result is shown in FIG. 9.\n(§3) To confirm muscle protein synthesis-promoting activity by treatment of L6 myoblasts (ATCC), which are muscle cells, with 3,5-dicaffeoylquinic acid, the cells were treated with the 3,5-dicaffeoylquinic acid obtained in Example 2 at 10, 20 or 40 μg/mL, and then mRNA expression levels of MyoD and myogenin were confirmed by the same method as described in Experimental Example 4."}, "myogenin": {"system": "myogenin", "experiment": "myogenin mRNA expression (RT-PCR) during L6 myotube differentiation", "conditions": "L6 muscle cells, 10, 20 or 40 μg/mL during differentiation, FIG. 14", "experimental": "as §2, §3"}}}
{"molecule": "O=C(/C=C/c1ccc(O)c(O)c1)O[C@@H]1CC(O)(C(=O)O)C[C@@H](OC(=O)/C=C/c2ccc(O)c(O)c2)C1O", "note": "(stereo partly drawn) [3,5-dicaffeoylquinic acid, (3R,5R)-3,5-bis[[(E)-3-(3,4-dihydroxyphenyl)prop-2-enoyl]oxy]-1,4-dihydroxycyclohexane-1-carboxylic acid]", "values": [{"measurement": "expression level of PGC-1α", "setting": "PGC-1α", "value": "significantly increased"}, {"measurement": "expression level of SIRT1", "setting": "SIRT1", "value": "significantly increased"}, {"measurement": "mRNA expression level of atrogin-1 increased by TNF-α", "setting": "atrogin-1", "value": "decreased in a concentration dependent manner"}, {"measurement": "mRNA expression level of MuRF-1 increased by TNF-α", "setting": "MuRF-1", "value": "decreased in a concentration dependent manner"}, {"measurement": "p-mTOR protein expression level reduced by TNF-α", "setting": "p-mTOR", "value": "increased in a concentration-dependent manner"}, {"measurement": "mRNA expression level of MyoD", "setting": "MyoD", "value": "increased in a concentration-dependent manner"}, {"measurement": "mRNA expression level of myogenin", "setting": "myogenin", "value": "increased in a concentration-dependent manner"}]}
